The values that follow come from patent US20240335462A1, “SULFUR/PHOSPHORUS-CONTAINING ARYL COMPOUND AND APPLICATION THEREOF” (MEDSHINE DISCOVERY INC., priority 2021, published 2024).

Test [1] deals with JAK2/2 signaling pathway (GM-CSF/pSTAT5). Kind of test: GM-CSF-stimulated pSTAT5 in human PBMC (flow cytometry). The class given is cell-based. As to conditions: CD33-positive cells. The protocol: The purpose of this experiment was to detect the inhibitory effect of the compounds on cytokine-activated JAK-STAT signaling pathways in human peripheral blood mononuclear cells (PBMC).
• a) PBMCs frozen in liquid nitrogen were thawed in a 37° C. water bath, and culture medium was added. The mixture was then centrifuged at 320 g for 3 minutes. • b) Cells were resuspended in culture medium, counted, and the cell concentration was adjusted to 5×10^5 cells/mL with culture medium. Subsequently, the cell suspension was inoculated into […] 96-well round-bottom plates, with 200 μL per well. The plates were incubated at 37° C. with 5% CO2 for 90 minutes. • c) Different concentrations of the test compound (starting at 2 μM, 5-fold serial dilution, a total of 8 concentrations) were added, followed by incubation at 37° C. with 5% CO2 for 30 minutes. • d) IL-6 (final concentration at 20 ng/mL) was added to the first round-bottom plate and incubated at 37° C. with 5% CO2 for 15 minutes. • e) IFNα (final concentration at 1000 U/mL) was added to the second round-bottom plate and incubated at 37° C. with 5% CO2 for 15 minutes. • f) IL-2 (final concentration at 4 ng/mL) was added to the third round-bottom plate and incubated at 37° C. with 5% CO2 for 15 minutes. • g) GM-CSF (final concentration at […]) was added to the fourth round-bottom plate and incubated at 37° C. with 5% CO2 for 15 minutes. • h) Cells were centrifuged at 320 g for 3 minutes, and each well was washed once with 200 μL of staining solution. • i) 50 μL of staining solution containing human CD33 antibody was added to each well of the GM-CSF-stimulated culture plate, and 50 μL of staining solution containing CD4 antibody was added to the remaining three culture plates. The staining was performed at 4° C. for 30 minutes. The cells were washed twice with the staining solution. • j) 100 μL of fixation buffer was added to each well, and the cells were fixed at 4° C. for 15 minutes. The cells were washed once with the staining solution. • k) 100 μL of permeabilization buffer was added to each well, and the cells were permeabilized at 4° C. for 20 minutes. The cells were washed twice with the staining solution. • l) 50 μL of staining solution containing human pSTAT1 antibody was added to each well of the IL-6 and IFN-α-stimulated culture plates, and 50 μL of staining solution containing human pSTAT5 antibody was added to each well of the IL-2 and GM-CSF-stimulated culture plates. The staining was performed at room temperature for 15 minutes. The cells were washed twice with the staining solution. • m) The cells were resuspended in 150 μL of staining solution. • n) The fluorescence intensity of pSTAT1 (stimulated by IL-6 and IFN-α) or pSTAT5 (stimulated by IL-2) in CD4-positive cells was detected using flow cytometer. The fluorescence intensity of pSTAT5 (stimulated by GM-CSF) in CD33-positive cells was also detected.
Data analysis was performed using Flowjo software to determine the IC50 of the compounds.

In test [2] the test system is TYK2 signaling pathway (IFN-α/pSTAT1). Kind of test: IFN-α-induced STAT1 phosphorylation in mouse whole blood. The class given is cell-based. As to conditions: CD3+ cells. The method, then: The purpose of this experiment was to detect the inhibitory effect of the compound on the JAK-STAT signaling pathway activated by IFN-α in mouse whole blood. Fresh mouse whole blood was collected and placed in a 96-well plate. The test compound was added and incubated for 1 hour, followed by stimulation with IFN-α. The corresponding STAT1 phosphorylation level in the CD3^+ cell population was analyzed using flow cytometer by means of surface antibody staining and intracellular phosphorylated antibody staining. The IFN-α-induced STAT1 phosphorylation in mouse whole blood is dependent on TYK2 activity. By detecting the inhibitory activity of the compound on downstream […] phosphorylation, the half maximal inhibitory concentration (IC50) of the compound on TYK2 signaling pathway activity can be determined.
• a) The compound was prepared into a 10 mM solution with dimethyl sulfoxide (DMSO), and diluted in DMSO to a solution with various concentrations, 500 times the final concentration. • b) 5 μL of the diluted compound was transferred to 120 μL of phosphate buffered saline (PBS) containing 0.1% bovine serum albumin (BSA). • c) Positive and negative control groups were set up, with both finally containing 0.2% DMSO.
• a) 67.5 μL of mouse whole blood was added to each well of a 96-well cell culture plate. • b) 3.5 μL of the diluted compound was added thereto and mixed thoroughly. • c) The plate was incubated in a 37° C. incubator for 60 minutes. • d) Mouse interferon recombinant protein was diluted 125-fold in PBS containing 0.1% BSA, and anti-mouse CD3 antibody was diluted 5-fold in PBS containing 0.1% BSA. 5 μL of diluted anti-mouse CD3 antibody and 4 μL of diluted mouse interferon recombinant protein were added to each well. • e) The plate was incubated in a 37° C. incubator for 30 minutes. • f) All cells were transferred to a 96-well deep well plate, and 1 mL of 37° C. pre-warmed 1× lysis/fixation buffer was added thereto. • g) The cells were incubated in the dark at 37° C. for 10 minutes. • h) After centrifugation at 600 g for 5 minutes, the supernatant was discarded, and the cells were washed twice with 1 mL of PBS by centrifugation. • i) 0.4 mL per well of permeabilization buffer was added to the cell pellet and mixed thoroughly. The cells were incubated in the dark at 4° C. for 30 minutes. • j) After centrifugation at 600 g for 5 minutes, the supernatant was discarded, and the cells were washed twice with 1 mL of flow cytometry staining buffer (PBS+0.2% BSA+1 mM EDTA) by centrifugation. • k) Anti-STAT1 antibody was diluted 65-fold in flow cytometry staining buffer, and added to cell-containing wells at 100 μL per well and mixed thoroughly. • l) The cells were incubated at room temperature for 40 minutes. • m) 1 mL per well of flow cytometry staining buffer was added, and the cells were washed twice by centrifugation at 600 g for 5 minutes. • n) The supernatant was discarded, and the cell pellet was resuspended in 300 μL of flow cytometry staining buffer. • o) The samples were loaded for analysis using the Beckman CytoFlex flow cytometer.
Data were analyzed using FlowJo software. Curve fitting was performed and the IC50 was calculated using GraphPad Prism 8 software.

Molecules are shown by their SMILES.

Regarding `CNC(=O)c1nnc(NC(=O)C2CC2)cc1Nc1cccc(-c2ncc(S(=N)(=O)C(C)C)cn2)c1OC` (single isomer, unassigned) [WX-011A], the IC50 in test [1] amounted to 1.66 µM; in test [2], 0.148 µM.

Turning to `CNC(=O)c1cnc(NC(=O)C2CC2)cc1Nc1cccc(-c2ncc(S(=O)(=O)C(C)C)cn2)c1OC` [WX-019], the IC50 in test [1] came out at 1.44 µM; in test [2], 0.427 µM.

Regarding `CNC(=O)c1cnc(NC(=O)C2CC2)cc1Nc1cccc(-c2ccc(S(=O)(=O)C(C)C)cn2)c1OC` [WX-020], half-maximal inhibition in test [2] (IC50) was put at 0.369 µM.

Take `CNC(=O)c1nnc(NC(=O)C2CC2)cc1Nc1cccc(-c2ccc(P(=O)(C3CC3)C3CC3)cn2)c1OC` [WX-021]: the IC50 amounted to 0.58 µM in test [1] and 0.452 µM in test [2].

With `CNC(=O)c1nnc(NC(=O)C2CC2)cc1Nc1cccc(-c2ncc(S(=N)(=O)C(C)C)cn2)c1OC` (single isomer, unassigned) [WX-011B], the half-maximal inhibitory concentration (IC50) in test [1] was 1.35 µM; in test [2], 0.375 µM.

In test [1], `CNC(=O)c1cnc(NC(=O)C2CC2)cc1Nc1cccc(-c2ccc(S(=O)(=O)C(C)C)cn2)c1OC.Cl` [Hydrochloride of WX-020] returned an IC50 of 1.07 µM.

`CNC(=O)c1nnc(NC(=O)C2CC2)cc1Nc1cccc(-c2ccc(S(=N)(=O)C(C)C)cn2)c1OC` (single isomer, unassigned) [WX-012B] gave an IC50 in test [2] of 0.419 µM.
